Laboratory results: ChEMBL document CHEMBL4680240, “Tail approach synthesis of novel benzenesulfonamides incorporating 1,3,4-oxadiazole hybrids as potent inhibitor of carbonic anhydrase I, II, IX, and XII isoenzymes” (Eur J Med Chem, 2020)

Columns and labels:
[1] = target: Carbonic anhydrase 9 (Homo sapiens, UniProt Q16790); experiment: Inhibition of recombinant human carbonic anhydrase 9 incubated for 10 mins prior to testing measured for 5 to 10 secs by phenol red-based stopped-flow CO2 hydration assay
[2] = target: Carbonic anhydrase 2 (Homo sapiens, UniProt P00918); experiment: Inhibition of recombinant human carbonic anhydrase 2 incubated for 10 mins prior to testing measured for 5 to 10 secs by phenol red-based stopped-flow CO2 hydration assay
[3] = target: Carbonic anhydrase 1 (Homo sapiens, UniProt P00915); experiment: Inhibition of recombinant human carbonic anhydrase 1 incubated for 10 mins prior to testing measured for 5 to 10 secs by phenol red-based stopped-flow CO2 hydration assay
[4] = target: Carbonic anhydrase 12 (Homo sapiens, UniProt O43570); experiment: Inhibition of recombinant human carbonic anhydrase 12 incubated for 10 mins prior to testing measured for 5 to 10 secs by phenol red-based stopped-flow CO2 hydration assay
Sequence of Carbonic anhydrase 12 (O43570 whole entry): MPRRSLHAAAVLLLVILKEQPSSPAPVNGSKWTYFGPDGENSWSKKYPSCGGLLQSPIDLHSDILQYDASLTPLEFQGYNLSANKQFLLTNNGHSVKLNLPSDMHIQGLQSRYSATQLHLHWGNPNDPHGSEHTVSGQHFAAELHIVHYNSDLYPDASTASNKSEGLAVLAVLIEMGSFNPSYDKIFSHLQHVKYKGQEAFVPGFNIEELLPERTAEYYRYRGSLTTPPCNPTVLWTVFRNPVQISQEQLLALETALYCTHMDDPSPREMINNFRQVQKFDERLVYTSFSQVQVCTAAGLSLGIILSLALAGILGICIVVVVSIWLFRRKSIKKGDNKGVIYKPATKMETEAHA

Sequence of Carbonic anhydrase 1 (P00915 whole entry): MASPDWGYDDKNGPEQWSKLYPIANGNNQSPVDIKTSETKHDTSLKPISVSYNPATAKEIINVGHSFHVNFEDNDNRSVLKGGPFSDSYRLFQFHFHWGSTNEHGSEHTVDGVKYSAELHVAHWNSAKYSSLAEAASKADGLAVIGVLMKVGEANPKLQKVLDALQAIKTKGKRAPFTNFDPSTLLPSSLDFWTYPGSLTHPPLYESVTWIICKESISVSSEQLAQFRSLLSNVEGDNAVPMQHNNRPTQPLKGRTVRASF

Row | Compound | Ki [1] | Ki [2] | Ki [3] | Ki [4]
1 | NS(=O)(=O)c1ccc(-c2nnc(SCC(=O)Nc3cccc(Cl)c3)o2)cc1 | 50.8 nM | 81.9 nM | 501 nM | 400 nM
2 | COc1cccc(C(=O)CSc2nnc(-c3ccc(S(N)(=O)=O)cc3)o2)c1 | 1330 nM | 79.6 nM | 470 nM | 492 nM
3 | Cc1ccc(NC(=O)CSc2nnc(-c3ccc(S(N)(=O)=O)cc3)o2)cc1 | 74.1 nM | 78.7 nM | 739 nM | 263 nM
4 | COc1cccc(NC(=O)CSc2nnc(-c3ccc(S(N)(=O)=O)cc3)o2)c1 | 53.1 nM | 69.8 nM | 673 nM | 690 nM
5 | NS(=O)(=O)c1ccc(-c2nnc(SCC(=O)c3cccc(Cl)c3)o2)cc1 | 1250 nM | 59.2 nM | 544 nM | 383 nM
6 | COc1ccc(NC(=O)CSc2nnc(-c3ccc(S(N)(=O)=O)cc3)o2)cc1 | 29 nM | 53.6 nM | 2920 nM | 266 nM
7 | NS(=O)(=O)c1ccc(-c2nnc(SCC(=O)Nc3ccc(F)cc3)o2)cc1 | 163 nM | 85.7 nM | 711 nM | 588 nM
8 | NS(=O)(=O)c1ccc(-c2nnc(SCC(=O)Nc3ccccc3)o2)cc1 | 111 nM | 61.1 nM | 542 nM | 366 nM
9 | NS(=O)(=O)c1ccc(-c2nnc(SCC(=O)Nc3ccc(Cl)cc3)o2)cc1 | 757 nM | 96 nM | 2080 nM | 838 nM
10 | NS(=O)(=O)c1ccc(-c2nnc(SCC(=O)Nc3ccc(Br)cc3)o2)cc1 | 671 nM | 848 nM | 3900 nM | 751 nM

The next lines start with the values.

Row | Ki [1] | Ki [2] | Ki [3] | Ki [4] | Compound
11 | 1320 nM | 67.3 nM | 595 nM | 840 nM | NS(=O)(=O)c1ccc(-c2nnc(SCC(=O)c3ccc(Cl)cc3)o2)cc1
12 | 1980 nM | 69.4 nM | 744 nM | 2240 nM | NS(=O)(=O)c1ccc(-c2nnc(SCC(=O)c3ccc(F)cc3)o2)cc1
13 | 633 nM | 29.5 nM | 70.7 nM | 294 nM | NS(=O)(=O)c1ccc(-c2nnc(SCC(=O)c3ccc([N+](=O)[O-])cc3)o2)cc1
14 | 566 nM | 58.5 nM | 669 nM | 577 nM | NS(=O)(=O)c1ccc(-c2nnc(SCC(=O)c3cccc([N+](=O)[O-])c3)o2)cc1
15 | 256 nM | 73.1 nM | 762 nM | 737 nM | NS(=O)(=O)c1ccc(-c2nnc(SCC(=O)Nc3ccc([N+](=O)[O-])cc3)o2)cc1
16 | 449 nM | 158 nM | 3810 nM | 3620 nM | COc1ccc(C(=O)CSc2nnc(-c3ccc(S(N)(=O)=O)cc3)o2)cc1
17 | 201 nM | 148 nM | 3320 nM | 231 nM | Cc1ccc(C(=O)CSc2nnc(-c3ccc(S(N)(=O)=O)cc3)o2)cc1
18 | 757 nM | 347 nM | 1360 nM | 265 nM | NS(=O)(=O)c1ccc(-c2nnc(SCC(=O)c3ccccc3)o2)cc1
19 | 16.3 nM | 7.9 nM | 73.2 nM | 257 nM | NS(=O)(=O)c1ccc(-c2nnc(SCC(=O)Nc3cccc([N+](=O)[O-])c3)o2)cc1
20 | 1750 nM | 67 nM | 617 nM | 636 nM | NS(=O)(=O)c1ccc(-c2nnc(SCC(=O)c3ccc(Br)cc3)o2)cc1
